Measurements taken from ChEMBL document CHEMBL1201862, “PubChem BioAssay data set” (2004).
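Five compound concentrations were applied to cells in 96-well plates for 48 hours; endpoints were derived by simple linear interpolation of the resulting dose-response curve. GI50: concentration for 50% inhibition of growth.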 Activity calls are given as the source filed them. Rule as the data show it: active = GI50 up to about 1.1 µM and inactive = higher.

Assays:
Experiment in all cases: NCI anticancer screen, dose series, 48 h
[1] = system: HOP-18
[2] = system: SF-295
[3] = system: 786-0
[4] = system: SK-MEL-2
[5] = system: EKVX
[6] = system: Malme-3M
[7] = system: SK-OV-3
[8] = system: M19-MEL
[9] = system: RPMI-8226
[10] = system: SF-539
[11] = system: CCRF-CEM
[12] = system: DMS-273
[13] = system: HL-60
[14] = system: RXF 393
[15] = system: COLO 205
[16] = system: UACC-257
[17] = system: SK-MEL-5
[18] = system: SNB-19
[19] = system: XF498
[20] = system: IGROV-1
[21] = system: NCI-H226
[22] = system: NCI-H23
[23] = system: CAKI-1
[24] = system: HCC 2998
[25] = system: TK-10
[26] = system: HCT-116
[27] = system: SN12C
[28] = system: LXFL 529
[29] = system: SF-268
[30] = system: NCI-H522
[31] = system: A498
[32] = system: DLD-1
[33] = system: ACHN
[34] = system: UO-31
[35] = system: LOX IMVI
[36] = system: NCI-H460
[37] = system: HT-29
[38] = system: SK-MEL-28
[39] = system: SW-620
[40] = system: OVCAR-8
[41] = system: OVCAR-3
[42] = system: DMS-114
[43] = system: A549
[44] = system: KM12
[45] = system: K562
[46] = system: UACC-62
[47] = system: HOP-62
[48] = system: KM-20L2
[49] = system: U-251
[50] = system: SNB-75
[51] = system: HCT-15
[52] = system: MOLT-4
[53] = system: SNB-78
[54] = system: M14
[55] = system: SR
[56] = system: OVCAR-4
[57] = system: OVCAR-5
[58] = system: HOP-92

With `CCOC(=O)C12C(C(=O)OC)=C(C)N(NC(=O)Nc3ccccc3)C1(N)N(NC(=O)Nc1ccccc1)C(C)=C2C(=O)OC` (stereo not given) the GI50 [1] was 32.9 µM (inactive), the GI50 [2] was 26.1 µM (inactive) and the GI50 [3] was 39.5 µM (inactive). For the same compound, the GI50 [4] was 19.9 µM (inactive), the GI50 [5] was 43.5 µM (inactive) and the GI50 [6] was 21.6 µM (inactive). The GI50 [7] was > 59.8 µM (inactive), the GI50 [8] was 18 µM (inactive) and the GI50 [9] was 25.9 µM (inactive). The GI50 [10] was 18.9 µM (inactive), the GI50 [11] was 23.7 µM (inactive) and the GI50 [12] was 27.7 µM (inactive). For the same compound, the GI50 [13] was 23.6 µM (inactive), the GI50 [14] was 29.2 µM (inactive) and the GI50 [15] was > 41.1 µM (inactive). For the same compound, the GI50 [16] was 21.1 µM (inactive), the GI50 [17] was 19.9 µM (inactive) and the GI50 [18] was 29.4 µM (inactive). The GI50 [19] was 24.3 µM (inactive), the GI50 [20] was 41.2 µM (inactive) and the GI50 [21] was > 100 µM (inactive). The GI50 [22] was 37.4 µM (inactive), the GI50 [23] was 34.9 µM (inactive) and the GI50 [24] was 25.2 µM (inactive). For the same compound, the GI50 [25] was 36.1 µM (inactive), the GI50 [26] was 25.3 µM (inactive) and the GI50 [27] was > 61.5 µM (inactive). For the same compound, the GI50 [28] was 26.1 µM (inactive), the GI50 [29] was 31.3 µM (inactive) and the GI50 [30] was 20.9 µM (inactive). The GI50 [31] was 30.1 µM (inactive), the GI50 [32] was 41.5 µM (inactive) and the GI50 [33] was 34.1 µM (inactive). The GI50 [34] was 40 µM (inactive), the GI50 [35] was 17 µM (inactive) and the GI50 [36] was 40.3 µM (inactive). The GI50 [37] was 24.5 µM (inactive), the GI50 [38] was 34.1 µM (inactive) and the GI50 [39] was 40.6 µM (inactive). The GI50 [40] was 27.7 µM (inactive), the GI50 [41] was 22.9 µM (inactive) and the GI50 [42] was 31.9 µM (inactive). The GI50 [43] was 44.6 µM (inactive), the GI50 [44] was 19.2 µM (inactive) and the GI50 [45] was 29.9 µM (inactive). The GI50 [46] was 18 µM (inactive), the GI50 [47] was 20.5 µM (inactive) and the GI50 [48] was 20.5 µM (inactive). The GI50 [49] was 17.7 µM (inactive), the GI50 [50] was 33.7 µM (inactive) and the GI50 [51] was 35.2 µM. For the same compound, the GI50 [52] was 17.9 µM (inactive), the GI50 [53] was 47.4 µM (inactive) and the GI50 [54] was 21.2 µM (inactive). For the same compound, the GI50 [55] was 22 µM (inactive), the GI50 [56] was 39.8 µM (inactive) and the GI50 [57] was 38.5 µM (inactive). For the same compound, the GI50 [58] was 24.9 µM (inactive).
In the case of `CC(C)N(C(=O)C12C3C4C5(C#N)C3C1(I)C5C42I)C(C)C` (stereo not given), the GI50 [1] is reported as 97.5 µM (inactive), the GI50 [2] is reported as > 100 µM (inactive) and the GI50 [3] is reported as > 46.1 µM (inactive). The GI50 [4] was > 100 µM (inactive), the GI50 [5] was > 100 µM (inactive) and the GI50 [6] was > 100 µM (inactive). For the same compound, the GI50 [7] was > 100 µM (inactive), the GI50 [8] was > 58.2 µM (inactive) and the GI50 [9] was > 49.8 µM (inactive). For the same compound, the GI50 [10] was > 60.8 µM (inactive), the GI50 [11] was > 44.3 µM (inactive) and the GI50 [12] was > 57.7 µM (inactive). For the same compound, the GI50 [13] was > 47.4 µM (inactive), the GI50 [14] was > 100 µM (inactive) and the GI50 [15] was > 42 µM (inactive). For the same compound, the GI50 [16] was > 100 µM (inactive), the GI50 [17] was > 100 µM (inactive) and the GI50 [18] was > 100 µM (inactive). The GI50 [19] was > 100 µM (inactive), the GI50 [20] was > 100 µM (inactive) and the GI50 [21] was > 100 µM (inactive). The GI50 [22] was > 100 µM (inactive), the GI50 [23] was > 100 µM (inactive) and the GI50 [24] was > 100 µM (inactive). The GI50 [25] was > 100 µM (inactive), the GI50 [26] was 17.8 µM (inactive) and the GI50 [27] was > 68.2 µM (inactive). The GI50 [28] was > 71.6 µM (inactive), the GI50 [29] was > 100 µM (inactive) and the GI50 [30] was > 100 µM (inactive). For the same compound, the GI50 [31] was > 100 µM (inactive), the GI50 [32] was > 92.7 µM (inactive) and the GI50 [33] was > 100 µM (inactive). The GI50 [34] was > 100 µM (inactive), the GI50 [35] was > 40.3 µM (inactive) and the GI50 [36] was > 78 µM (inactive). For the same compound, the GI50 [37] was > 73.8 µM (inactive), the GI50 [38] was > 100 µM (inactive) and the GI50 [39] was > 27 µM (inactive). The GI50 [40] was > 100 µM (inactive), the GI50 [41] was > 100 µM (inactive) and the GI50 [42] was > 42.5 µM (inactive). The GI50 [43] was > 100 µM (inactive), the GI50 [44] was > 100 µM (inactive) and the GI50 [45] was > 52.8 µM (inactive). The GI50 [46] was > 100 µM (inactive), the GI50 [47] was > 100 µM (inactive) and the GI50 [48] was > 66.7 µM (inactive). The GI50 [49] was > 84.1 µM (inactive), the GI50 [50] was > 70.3 µM (inactive) and the GI50 [51] was greater than 41.9 µM. The GI50 [52] was > 100 µM (inactive), the GI50 [53] was 67.9 µM (inactive) and the GI50 [54] was > 100 µM (inactive). The GI50 [55] was 37.8 µM (inactive), the GI50 [56] was > 45.5 µM (inactive) and the GI50 [57] was > 100 µM (inactive). For the same compound, the GI50 [58] was > 100 µM (inactive).
With `C1CNCCNCCNCCN1` the GI50 [1] was > 100 µM (inactive), the GI50 [2] was > 100 µM (inactive) and the GI50 [3] was > 100 µM (inactive). For the same compound, the GI50 [4] was > 100 µM (inactive), the GI50 [5] was > 100 µM (inactive) and the GI50 [6] was > 100 µM (inactive). The GI50 [7] was > 100 µM (inactive), the GI50 [8] was > 100 µM (inactive) and the GI50 [9] was > 100 µM (inactive). For the same compound, the GI50 [10] was > 100 µM (inactive), the GI50 [11] was > 100 µM (inactive) and the GI50 [12] was 53.8 µM (inactive). The GI50 [13] was 62.7 µM (inactive), the GI50 [14] was > 100 µM (inactive) and the GI50 [15] was 37.5 µM (inactive). For the same compound, the GI50 [16] was > 100 µM (inactive), the GI50 [17] was > 100 µM (inactive) and the GI50 [18] was > 100 µM (inactive). The GI50 [19] was 0.14 µM (active), the GI50 [20] was > 100 µM (inactive) and the GI50 [21] was > 100 µM (inactive). The GI50 [22] was > 100 µM (inactive), the GI50 [24] was 64.3 µM (inactive) and the GI50 [25] was > 100 µM (inactive). For the same compound, the GI50 [26] was 50.1 µM (inactive), the GI50 [27] was > 100 µM (inactive) and the GI50 [28] was > 100 µM (inactive). The GI50 [30] was > 100 µM (inactive), the GI50 [31] was > 100 µM (inactive) and the GI50 [32] was 41.3 µM (inactive). For the same compound, the GI50 [33] was > 100 µM (inactive), the GI50 [34] was > 100 µM (inactive) and the GI50 [35] was > 100 µM (inactive). The GI50 [36] was 35.8 µM (inactive), the GI50 [37] was 63.5 µM (inactive) and the GI50 [38] was > 100 µM (inactive). For the same compound, the GI50 [39] was 52.2 µM (inactive), the GI50 [40] was > 100 µM (inactive) and the GI50 [41] was 72.6 µM (inactive). The GI50 [42] was > 100 µM (inactive), the GI50 [43] was > 100 µM (inactive) and the GI50 [44] was > 100 µM (inactive). For the same compound, the GI50 [45] was 70.5 µM (inactive), the GI50 [46] was > 100 µM (inactive) and the GI50 [47] was > 100 µM (inactive). For the same compound, the GI50 [48] was 82.6 µM (inactive), the GI50 [49] was 24 µM (inactive) and the GI50 [50] was > 100 µM (inactive). The GI50 [51] was greater than 10 µM, the GI50 [52] was 64.6 µM (inactive) and the GI50 [53] was > 100 µM (inactive). The GI50 [54] was > 100 µM (inactive), the GI50 [55] was 51.6 µM (inactive) and the GI50 [57] was > 100 µM (inactive).
